The subject of data set [1] is peripheral blood mononuclear cells (PBMCs). In words: Immune deviation in PBMCs of trial patients (cytokine production, PD-1 expression). Conditions: for production of interleukin 10 (IL-10) / production of tumor necrosis factor α (TNFα): PBMCs / T cell subset of treated patients; for expression of Programmed Death 1 (PD-1) in PBMC: clinical responders, data not shown. It counts as in vivo, human. On the procedure:
The model employed here is based on the hypothesis that immune tolerization to a T-cell epitope, such as SEQ ID NO. 1 that may be a contributor of inflammation in patients with rheumatoid arthritis, may lead to detectable clinical improvement. A total of 96 patients with early rheumatoid arthritis, who were not allowed on Methotrexate or biologics, were tested with mucosal tolerization to SEQ ID NO. 1. Patients are defined as “responders” if they meet the response criteria at any time during the study. […] SEQ ID NO.
1 (herein dubbed clinical responders) was observed (data not shown). PD-1 was first described as a contributor to T-cell anergy and exhaustion in chronic viral infections and cancer.
It is established that SEQ ID NO: 1 treatment was associated with an immune deviation in the T cell subset characterized by a decrease and an increase in tumor necrosis factor α (TNFα) and IL-10, respectively.

Data set [2] deals with regulatory T cell (Treg) (CD4+CD25++CD127−). In words: Treg functionality: suppression of Teff proliferation (CFSE dilution). It counts as in vivo, human. Conditions: SEQ ID NO. 1 clinical responders at Tend, n=3; mean and s.e.m.; placebo clinical non-responders —76.21+/−3.665. On the procedure:
FIG. 3. Effector and regulatory T cell function differ according to clinical response: a. effector T cells (Teff) (CD4+CD127+) at beginning of the trial (TO) and end of the study (Tend) were compared for PD-1 expression in both SEQ ID NO. 1 clinical responders and placebo clinical non-responders by FACS. b. FACS-sorted Teffwere analyzed for IL-17 and for RORC. Teff were stained intracellularly with IL-17A, and analyzed by FACS. c. regulatory T cell (Treg) (CD4+CD25++CD127−) frequency (% of PBMC) was determined in SEQ ID NO. 1—treated clinical responders by FACS. […] Values are the mean and s.e.m. d. Treg functionality in SEQ ID NO. […] (placebo clinical non-responders vs SEQ ID NO. 1 clinical responders, —76.21+/−3.665 vs 8.443+/−4.677, n=2 vs 3, t-test p0.0010). […]
FIG. 5. […] Treg ability to suppress Teff proliferation was determined by CFSE dilution. […] T(x)=Probability binning. % PD-1+Treg is expressed as percentage of the total Treg population (insets in both panels). d. […] The average pSTAT5 expression per cell for anti-PD-1 treatment, as determined by the average integral density per unit area, was calculated using ImageJ (Rasband, W. S., ImageJ, http://rsb.info.nih.gov/ij/, 1997-2009). […] Total Treg, PD-1+Treg and PD-1− Treg from clinical responders (n=S) at Tend were sorted and RNA expression of CTLA-4, FoxP3, IL-10 and TGF-β was measured by TaqMan. Data are expressed as 2(−dCT)×100 of GAPDH. […]

The subject of data set [3] is latent TGFβ binding protein 4 (LTBP-4) gene. In words: Gene array analysis of PBMCs of trial patients. The class given is in vivo, human. Particulars: SEQ ID NO: 1 responders (FIG. 14A).
The format of data set [4] is in vitro ADME. Conditions: without a linker; data not shown. An excerpt: This is synthetically of less interest to a person skilled in the art since it usually involves multiple-step synthesis for making the peptide. In the presence of the linker, the peptide SEQ ID No: 1 and the antirheumatic drug can be administered in equal proportion because the linker protects the peptide from degradation and thus enhance the stability of the peptide.

Data set [5] relates to PD-1+Treg and PD-1− Treg. In words: TaqMan RNA expression in sorted total, PD-1+ and PD-1− Treg of clinical responders. Particulars: SEQ ID NO. 1 clinical responders at Tend. The class given is in vivo, human. On the procedure: FIG. 5. PD-1 actively contributes to Treg function: a. Treg ability to suppress Teff proliferation was determined by CFSE dilution. A representative clinical responder is depicted. Treg cells were sorted by FACS according to the phenotype depicted in the table and incubated with Teff in the presence of 10 mg/ml of SEQ ID NO. 1. b. […] 1. c. […] 1. Line with white area under the curve depicts T0, grey area depicts Tend. T(x)=Probability binning. % PD-1+Treg is expressed as percentage of the total Treg population (insets in both panels). d. […] PD-1+Treg cells were stained by FACS after a 5-day incubation with Teff and APC in the presence or absence of anti-PD1 antibody. Details in methods. Line with white area under the curve depicts anti-PD1 treated, grey area depicts untreated. T(x)=Probability binning. e. pSTAT5 was examined in Treg via immunofluorescent microscopy. Cells, staining and slides were prepared according to procedures outlined in the methods. The average pSTAT5 expression per cell for anti-PD-1 treatment, as determined by the average integral density per unit area, was calculated using ImageJ (Rasband, W. S., ImageJ, http://rsb.info.nih.gov/ij/, 1997-2009). Untreated vs. anti-PD-1 treated: 38.79 vs. 33.07, standard deviation 4.27 vs. […], t-test p<0.0001. f. […] Teff were stained by FACS after a 5-day incubation in the presence or absence of anti-PD1 antibody. Details in methods. Line with white area under the curve depicts anti-PD1 treated, grey area depicts untreated. T(x)=Probability binning. g. Total Treg, PD-1+Treg and PD-1− Treg from clinical responders (n=S) at Tend were sorted and RNA expression of CTLA-4, FoxP3, IL-10 and TGF-β was measured by TaqMan. Data are expressed as 2(−dCT)×100 of GAPDH. […] 1 clinical responders (18.99+/−3.412 vs 2.693+/−1.434, n=S p=0.0130).
To further characterize function of PD-1+Treg, mRNA was extracted from FACS-sorted CD4+/CD25++/CD127−total Treg, PD-1+Treg and PD-1-Treg and tested by qPCR for expression of various genes associated with Treg function.
(In general: Quantitative PCR measures a nucleic acid by following its amplification.)

Data set [6] relates to patients with early rheumatoid arthritis. In words: Phase II trial of mucosal tolerization to SEQ ID NO. 1: clinical outcome. The class given is in vivo, human. On the procedure: The model employed here is based on the hypothesis that immune tolerization to a T-cell epitope, such as SEQ ID NO. 1 that may be a contributor of inflammation in patients with rheumatoid arthritis, may lead to detectable clinical improvement. A total of 96 patients with early rheumatoid arthritis, who were not allowed on Methotrexate or biologics, were tested with mucosal tolerization to SEQ ID NO. 1. Patients are defined as “responders” if they meet the response criteria at any time during the study. […] SEQ ID NO. […]

Ends that are not written are not given here.

These results are taken from US20240287136A1, “PHARMACEUTICAL COMPOSITION AND THE USE THEREOF IN THE TREATMENT OF AUTOIMMUNE DISEASES” (Singapore Health Services Pte. Ltd., priority 2016, published 2024).

As to QKRAAYDQYGHAAFE-NH2 [SEQ ID NO. 1], in data set [1], the “production of interleukin 10 (IL-10)” value is on record as “increased production”, the “production of tumor necrosis factor α (TNFα)” value was “decreased production” and the “expression of Programmed Death 1 (PD-1) in PBMC” value is “significantly higher expression”. In data set [1] (listed as SEQ ID NO: 1), the “production of interleukin 10 (IL-10)” value is “increase”, the “production of tumor necrosis factor α (TNFα)” value was “decrease” and the “expression of Programmed Death 1 (PD-1) in PBMC” value is recorded as “significantly higher levels”. In data set [2], the “Treg functionality, % suppression of Teff proliferation” value is reported as 8.443+/−4.677 % suppression. In addition, the “expression of latent TGFβ binding protein 4 (LTBP-4) gene in PBMCs” value in data set [3] is on record as “marginal upregulation”. In addition, in data set [4], the “stability of the peptide upon ingestion” value is “prone to degradation upon ingestion”. In data set [5], the “CTLA-4, FoxP3 and IL-10 expression between the different subsets of Treg” value was “did not differ”; the “TGF-β gene expression in PD-1+Treg” value is recorded as 18.99+/−3.412 2(−dCT)×100 of GAPDH; the “TGF-β gene expression in PD-1− Treg” value was 2.693+/−1.434 2(−dCT)×100 of GAPDH. Besides, in data set [6] (96 patients with early rheumatoid arthritis), the “safety of mucosal tolerization” value is recorded as “safe”. Moreover, in data set [6] (96 patients with early rheumatoid arthritis, no Methotrexate or biologics), the clinical efficacy entry is reported as “comparable to the use of Methotrexate alone”. Besides, in data set [6] (after treatment withdrawal (FIG. 11E)), the joint pain result is given as “Sustained improvements”. In addition, the joint swelling entry in data set [6] (after treatment withdrawal (FIG. 11F)) was “Sustained improvements”. In addition, in data set [6] (one month after clinical withdrawal, versus placebo (FIG. 11D)), the “Physician global assessment scores” value is “performed better than placebo”.
